In patent US20060089395A1, “Nf-kb activation inhibitors” (priority 2002, published 2006):

System: NF-κ B
Assay: Inhibitory activity of NF-κ B activation, luciferase reporter assay in HepG2 under TNF-α stimulation
Format: cell-based, human
Settings: HepG2, TNF-α (40 ng/ml), 4 hours; for inhibition at 1 µg/mL / inhibition at 10 µg/mL: Homo sapiens; for inhibition at 1 µg/mL / Inhibitory Ratio of NF-κ B Activation(%) Drug Concentration 1 μg/mL: 1 μg/mL; for inhibition at 1 µg/mL: read-out: Inhibitory Ratio of NF-κ B Activation(%) Drug Concentration 1 μg/mL; for inhibition at 10 µg/mL / Inhibitory Ratio of NF-κ B Activation(%) Drug Concentration 10 μg/mL: 10 μg/mL; for inhibition at 10 µg/mL: read-out: Inhibitory Ratio of NF-κ B Activation(%) Drug Concentration 10 μg/mL
Method: Using a transfection reagent(Effectene; QIAGEN), the human hepatoma cell strain HepG2 was transfected with a plasmid(pNF κ B-Luc Reporter Plasmid; […]) which is integrated with an oligonucleotide having five tandem copies of NF-κ B binding sequences([…]) on a upstream region of firefly luciferase gene(Luc) according to the QIAGEN's protocol, and the cells were incubated for 6 to 24 hours. After the addition of TNF-α (40 ng/ml) in the presence or absence of a test compound, the cells were incubated for 4 hours, and intracellular luciferase activity was measured by using PicaGene LT (TOYO INK MFG Co., Ltd.) and a chemical luminescence measurement apparatus ([…]luor Plus; TECAN). The inhibitory ratio was measured as a ratio relative to the value of a luciferase activity in the absence of the test compound.

Row | Structure (SMILES) | inhibition at 1 µg/mL | inhibition at 10 µg/mL | Inhibitory Ratio of NF-κ B Activation(%) Drug Concentration 1 μg/mL | Inhibitory Ratio of NF-κ B Activation(%) Drug Concentration 10 μg/mL
1 | O=C(Nc1cc(C(F)(F)F)cc(C(F)(F)F)c1)c1cc(-c2ccccn2)ccc1O [Compound No. 32, N-[3,5-Bis(trifluoromethyl)phenyl]-2-hydroxy-5-(pyridin-2-yl)benzamide] | 90.4% | 99% |  | 
2 | COc1ccc(O)c(C(=O)Nc2cc(C(F)(F)F)cc(C(F)(F)F)c2)c1 [Compound No. 33] |  |  | 30.7% | 97.0%
3 | CC(C)C(=O)c1ccc(O)c(C(=O)Nc2cc(C(F)(F)F)cc(C(F)(F)F)c2)c1 [Compound No. 34, N-[3,5-Bis(trifluoromethyl)phenyl]-2-hydroxy-5-isobutyrylbenzamide] | 90.7% | 98.7% |  | 
4 | COC(=O)c1ccc(O)c(C(=O)Nc2cc(C(F)(F)F)cc(C(F)(F)F)c2)c1 [Compound No. 35, N-[3,5-bis(trifluoromethyl)phenyl]-4-hydroxyisophthalamic acid methyl ester] | 88.2% | 96.4% |  | 
5 | O=C(Nc1cc(C(F)(F)F)cc(C(F)(F)F)c1)c1ccc(O)c(C(=O)Nc2cc(C(F)(F)F)cc(C(F)(F)F)c2)c1 [Compound No. 37] |  |  |  | 94.5%
6 | CN(C)C(=O)c1ccc(O)c(C(=O)Nc2cc(C(F)(F)F)cc(C(F)(F)F)c2)c1 [Compound No. 38, N^3-[3,5-bis(trifluoromethyl)phenyl]-4-hydroxy-N^1,N^1-dimethylisophthalamide] | 16% | 87.1% |  | 
7 | O=C(Nc1cc(C(F)(F)F)cc(C(F)(F)F)c1)c1cc(C(=O)N2CCCCC2)ccc1O [Compound No. 39, N-[3,5-Bis(trifluoromethyl)phenyl]-2-hydroxy-5-(piperidine-1-carbonyl)benzamide] | 23.7% | 82.2% |  | 
8 | CN(C)S(=O)(=O)c1ccc(O)c(C(=O)Nc2cc(C(F)(F)F)cc(C(F)(F)F)c2)c1 [Compound No. 41, N-[3,5-Bis(trifluoromethyl)phenyl]-5-dimethylsufamoyl-2-hydroxybenzamide] |  |  | 42.2% | 95.9%
9 | O=C(Nc1cc(C(F)(F)F)cc(C(F)(F)F)c1)c1cc(S(=O)(=O)n2cccc2)ccc1O [Compound No. 42, N-[3,5-Bis(trifluoromethyl)phenyl]-2-hydroxy-5-(pyrrole-1-sulfonyl)benzamide] | 84.4% | 98.1% |  | 
10 | CN(C)c1ccc(O)c(C(=O)Nc2cc(C(F)(F)F)cc(C(F)(F)F)c2)c1 [Compound No. 44] |  |  |  | 67.5%
11 | O=C(Nc1ccc(O)c(C(=O)Nc2cc(C(F)(F)F)cc(C(F)(F)F)c2)c1)c1ccccc1 [Compound No. 45] |  |  |  | 63.4%
12 | O=C(Nc1ccccc1)Nc1ccc(O)c(C(=O)Nc2cc(C(F)(F)F)cc(C(F)(F)F)c2)c1 [Compound No. 46] |  |  | 20.5% | 88.4%
13 | O=C(Nc1cc(C(F)(F)F)cc(C(F)(F)F)c1)c1cc(NC(=S)Nc2ccccc2)ccc1O [Compound No. 47] |  |  | 51.8% | 97.2%
14 | O=C(Nc1cc(C(F)(F)F)cc(C(F)(F)F)c1)c1cc(N=Nc2ccc([N+](=O)[O-])cc2)ccc1O [Compound No. 48] |  |  | 96.2% | 98.7%
15 | O=C(Nc1cc(C(F)(F)F)cc(C(F)(F)F)c1)c1cc(N=Nc2ccc(S(=O)(=O)Nc3ccccn3)cc2)ccc1O [Compound No. 49] |  |  | 19.4% | 89.1%
16 | CC(=O)Nc1cc(O)c(C(=O)Nc2cc(C(F)(F)F)cc(C(F)(F)F)c2)cc1Cl [Compound No. 50, 4-Acetylamino-N-[3,5-bis(trifluoromethyl)phenyl]-5-chloro-2-hydoxybenzamide] |  |  | 69.9% | 96.0%
17 | O=C(Nc1cc(C(F)(F)F)cc(C(F)(F)F)c1)c1c(O)cccc1O [Compound No. 52] |  |  | 96.4% | 97.3%
18 | Cc1ccc(C(=O)Nc2cc(C(F)(F)F)cc(C(F)(F)F)c2)c(O)c1 [Compound No. 53] |  |  | 93.3% | 94.5%
19 | O=C(Nc1cc(C(F)(F)F)cc(C(F)(F)F)c1)c1cc(Br)c(O)cc1O [Compound No. 54] |  |  |  | 86.5%
20 | O=C(Nc1cc(C(F)(F)F)cc(C(F)(F)F)c1)c1ccc(O)cc1O [Compound No. 55] |  |  | 10.8% | 88.6%
21 | O=C(Nc1cc(C(F)(F)F)cc(C(F)(F)F)c1)c1cc(Cl)cc(Cl)c1O [Compound No. 56] |  |  | 89.4% | 95.1%

Row | Structure (SMILES) | inhibition at 1 µg/mL | inhibition at 10 µg/mL | Inhibitory Ratio of NF-κ B Activation(%) Drug Concentration 1 μg/mL | Inhibitory Ratio of NF-κ B Activation(%) Drug Concentration 10 μg/mL
22 | O=C(Nc1cc(C(F)(F)F)cc(C(F)(F)F)c1)c1cccc(O)c1O [Compound No. 57] |  |  |  | 91.9%
23 | Cc1cccc(C(=O)Nc2cc(C(F)(F)F)cc(C(F)(F)F)c2)c1O [Compound No. 58, N-[3,5-bis(trifluoromethyl)phenyl]-2-hydroxy-3-methylbenzamide] | 88.2% | 95% |  | 
24 | COc1cccc(C(=O)Nc2cc(C(F)(F)F)cc(C(F)(F)F)c2)c1O [Compound No. 59] |  |  | 41.9% | 94.7%
25 | CC(C)(C)CC(C)(C)c1ccc(O)c(C(=O)Nc2cc(C(F)(F)F)cc(C(F)(F)F)c2)c1 [Compound No. 60] |  |  | 94.0% | 99.1%
26 | O=C(Nc1cc(C(F)(F)F)cc(C(F)(F)F)c1)c1c(O)c(Cl)cc(Cl)c1Cl [Compound No. 61] |  |  | 95.1% | 97.2%
27 | CC(C)(C)c1cc(C(=O)Nc2cc(C(F)(F)F)cc(C(F)(F)F)c2)c(O)c(C(C)(C)C)c1 [Compound No. 62] |  |  | 37.0% | 86.9%
28 | O=C(Nc1cc(C(F)(F)F)cc(C(F)(F)F)c1)c1cccc(Cl)c1O [Compound No. 64] |  |  | 84.9% | 94.1%
29 | COc1ccc(C(=O)Nc2cc(C(F)(F)F)cc(C(F)(F)F)c2)c(O)c1 [Compound No. 65] |  |  | 83.3% | 89.8%
30 | O=C(Nc1cc(C(F)(F)F)cc(C(F)(F)F)c1)c1cc2ccccc2cc1O [Compound No. 72] |  |  | 94.6% | 95.0%
31 | O=C(Nc1cc(C(F)(F)F)cc(C(F)(F)F)c1)c1scc(Br)c1O [Compound No. 74, 4-Bromo-3-hydroxy-N-[3,5-bis(trifluoromethyl)phenyl]thiophene-2-carboxamide] | 64% | 97.5% |  | 
32 | O=C(Nc1cc(C(F)(F)F)cc(C(F)(F)F)c1)c1cc(Cl)cnc1O [Compound No. 75] |  |  | 58.1% | 82.2%
33 | O=C(Nc1cc(C(F)(F)F)cc(C(F)(F)F)c1)c1cc(Cl)ccc1O [Compound No. 80] |  |  | 46.3% | 73.0%
34 | CC(=O)Oc1ccc(Cl)cc1C(=O)Nc1cc(C(F)(F)F)ccc1C(F)(F)F [Compound No. 82] |  |  | 94.0% | 96.8%
35 | Cc1ccc(O)c(C(=O)Nc2cc(C(F)(F)F)ccc2C(F)(F)F)c1 [Compound No. 84] |  |  | 92.6% | 96.6%
36 | O=C(Nc1cc(F)cc(C(F)(F)F)c1)c1cc(Cl)ccc1O [Compound No. 85] |  |  | 94.7% | 98.9%
37 | O=C(Nc1cc(C(F)(F)F)ccc1F)c1cc(Cl)ccc1O [Compound No. 87] |  |  | 93.1% | 95.9%
38 | CC(=O)Oc1ccc(Cl)cc1C(=O)Nc1cc(C(F)(F)F)ccc1Cl [Compound No. 89] |  |  | 96.7% | 97.4%
39 | O=C(Nc1cc(C(F)(F)F)ccc1[N+](=O)[O-])c1cc(Cl)ccc1O [Compound No. 91] |  |  | 86.3% | 96.7%
40 | COc1ccc(C(F)(F)F)cc1NC(=O)c1cc(Cl)ccc1O [Compound No. 95] |  |  | 91.8% | 98.5%
41 | CSc1ccc(C(F)(F)F)cc1NC(=O)c1cc(Cl)ccc1O [Compound No. 96] |  |  | 94.6% | 99.1%
